Results published in patent publication US5464617A, “β-lactam compounds” (Hoffmann-La Roche Inc., priority 1994, dated 1995).
Values after ≈ are worked out from the molar mass of the structure shown. Counter-ions that a name gives are not always drawn.

Assays:
[1] = tested on: Citrobacter freundii 1982; test: MIC in vitro of a 1:4 combination of ceftriaxone with a compound of formula I (Test D); assay type: cell-based; settings: 1:4 combination of ceftriaxone with the compound; for MIC C. freundii 1982 (D): Table 4, test D
Experimental: The minimum inhibitory concentration in vitro ([…]) of a 1:4 combination of ceftriaxone with a compound of formula I against Citrobacter freundii 1982 was measured and compiled in Table 2 hereinafter.

E. coli 1346 = test: Antibacterial activity of the products per se, serial dilution method in liquid medium (Test E); assay type: cell-based; settings: product per se; for MIC E. coli 1346 (E): Table 4, test E
Excerpt: The antibacterial activity of the products per se is illustrated on the basis of Table 3 hereinafter, the minimum inhibitory concentration […] in vitro against E. coli 1346 being determined using the serial dilution method in liquid medium: […]

SMILES | MIC C. freundii 1982 (D) [1] | MIC E. coli 1346 (E) (E. coli 1346) | MIC C. freundii 1982 ([1]; Table 2) | MIC E. coli 1346 (E. coli 1346; Table 3, liquid medium)
NC(=O)OCC1=C(C(=O)O)N2C(=O)[C@@H]3[C@H]2[C@H](C1)CN3C(=O)CNc1ccccc1 [58(h), (1aS,3aR,6bR)-5-Carbamoyloxymethyl-1-oxo-2-phenylaminoacetyl-1a,2,3,3a,4,6b-hexahydro-1 H-2,6a-diazacyclobut[cd]indene-6-carboxylic acid sodium salt] | 1 µg/mL | 32 µg/mL | – | –
C[n+]1ccc(SCC2=C(C(=O)[O-])N3C(=O)[C@H]4NC[C@@H](C2)[C@H]43)cc1 [Example 20, (1aS,3aR,6bR)-5-(1-Methyl-pyridin-4-yliosulphanylmethyl)-1-oxo-1a,2,3,3a,4,6b-hexahydro-1H-2,6a-diazacyclobut[cd]indene-6-carboxylate trifluoroacetate] | – | – | 1 µg/mL | ≤ 0.5 µg/mL
NC(=O)OCC1=C(C(=O)O)N2C(=O)[C@@H]3[C@H]2[C@H](C1)CN3C(=O)NCc1ccc(S(N)(=O)=O)cc1 [27(e), (1aS,3aR,6bR)-5-Carbamoyloxymethyl-2-(4-sulphamoylbenzylcarbamoyl)-1-oxo-1a,2,3,3a,4,6b-hexahydro-1H-2,6a-diazacyclobut[cd]indene-6-carboxylic acid sodium salt] | 0.5 µg/mL | 32 µg/mL | – | –
CC(=O)OCC1=C(C(=O)O)N2C(=O)[C@@H]3[C@H]2[C@H](C1)CN3C(C)=O [25(c), (1aS,3aR,6bR)-5-Acetoxymethyl-2-acetyl-1-oxo-1a,2,3,3a,4,6b-hexahydro-1H-2,6a-diazacyclobut[cd]indene-6-carboxylic acid sodium salt] | 1 µg/mL | 4 µg/mL | – | –

Second part, led by results:

MIC C. freundii 1982 (D) [1] | MIC E. coli 1346 (E) (E. coli 1346) | SMILES | MIC C. freundii 1982 ([1]; Table 2) | MIC E. coli 1346 (E. coli 1346; Table 3, liquid medium)
4 µg/mL | > 32 µg/mL | O=C(O)C1=C(CSc2nnnn2CC(=O)N2CCOCC2)S[C@@H]2CN[C@@H]3C(=O)N1[C@@H]32 [40(g), (1aS,3aR,6bS)-5-[1-(2-Morpholin-4-yl-2-oxo-ethyl)-1H-tetrazol-5-ylsulphanylmethyl]-1-oxo-4-thia-1,1a,2,3,3a,6b-hexahydro-2,6a-diazacyclobut[cd]indene-6-carboxylic acid] | – | –
2 µg/mL | 8 µg/mL | NC(=O)Cn1nnnc1SCC1=C(C(=O)O)N2C(=O)[C@@H]3[C@H]2[C@@H](CN3C(=O)C(F)(F)F)O1 [Example 39, (1aS,3aR,6bS)-5-(1-Carbamoylmethyl-1H-tetrazol-5-ylsulphanylmethyl)-1-oxo-2-trifluoroacetyl-1,1a,2,3,3a,6b-hexahydro-4-oxa-2,6a-diazacyclobut[cd]indene-6-carboxylic acid sodium salt] | – | –
0.5 µg/mL | 2 µg/mL | Nc1nnc(SCC2=C(C(=O)O)N3C(=O)[C@@H]4[C@H]3[C@H](C2)CN4C(=O)C(F)(F)F)s1 [19(h), (1aS,3aR,6bR)-5-(5-Amino-1,3,4-thiadiazol-2-ylsulphanylmethyl)-1-oxo-2-trifluoroacetyl-1a,2,3,3a,4,6b-hexahydro-1H-2,6a-diaza-cyclobut[cd]indene-6-carboxylic acid sodium salt] | – | –
8 µg/mL | 32 µg/mL (≈ 83.9 µM) | CNC(=O)Cn1nnnc1SCC1=C(C(=O)O)N2C(=O)[C@H]3NC[C@@H](O1)[C@H]32 [Example 29(k), (1aS,3aR,6bS)-5-(1-Methylcarbamoylmethyl-1H-tetrazol-5-ylsulphanylmethyl)-1-oxo-1,1a,2,3,3a,6 b-hexahydro-4-oxa-2,6a-diazacyclobut[cd]indene-6-carboxylic acid] | – | –
1 µg/mL | 2 µg/mL | CC(=O)N1C[C@H]2CC(CSc3nc[nH]n3)=C(C(=O)O)N3C(=O)[C@@H]1[C@@H]23 [76(a), (1aS,3aR,6bR)-2-Acetyl-1-oxo-5-(1H-1,2,4-triazol-3-ylsulphanylmethyl)-1a,2,3,3a,4,6b-hexahydro-1H-2,6a-diazacyclobut[cd]indene-6-carboxylic acid sodium salt] | – | –
